Our source for the IC50 values is BindingDB's records for doi:10.1016/j.bmcl.2011.09.019 (Itherx Pharmaceuticals, 2011).

One may read the IC50 as the concentration that inhibits the measured activity by half. A low value points to higher potency.

The experiment can be described thus: Inhibition of human SRB1-mediated Hepatitis C virus genotype 2a entry into human 293T cells by immunoblotting. (Immunoblotting shows a protein as a band on a membrane.)

SMILES strings stand for the structures.

As for `COC(=O)c1ccc2c(c1)c1ccccc1n2CCCN1C[C@@H](C)N[C@@H](C)C1`, the IC50 worked out at 230 nM. The figure for `CCOC(=O)c1ccc2c(c1)c1ccccc1n2CCCN1C[C@@H](C)N[C@@H](C)C1` is 600 nM; for `CC(C)OC(=O)c1ccc2c(c1)c1ccccc1n2CCCN1C[C@@H](C)N[C@@H](C)C1` it is 630 nM. With `C[C@@H]1CN(CCCn2c3ccccc3c3ccccc32)C[C@H](C)N1` [9-(3-(3,5-dimethylpiperazin-1-yl)propyl)-9H-carbazole] the figure was 1200 nM.
